For one data set, the system named is CYP3A4. The following applies: cited from earlier work.
For data set [1] the following is noted: both, human, in vivo, iv.
For another data set, the system named is CYP2B6. The following applies: cited from earlier work.
The nature of a further data set: Intravenous. Conditions: for Cmax / AUC(0-t) / AUC(0-inf): both, human, in vivo; for AUC(0-t): AUC0-96, oral methadone; for AUC(0-inf): AUC0-∞; for AUC(0-inf) / Foral: oral methadone.
For data set [2] the following is noted: cited from earlier work.
In another data set the test system is healthy volunteers. Conditions: 6.0 mg intravenous plus 11.0 mg oral methadone HCl.
For data set [3] the following is noted: cited from earlier work. This is another data set of the same source.
The subject of data set [4] is P-gp. Conditions: cited from earlier work.
A further data set has as its system CYP3A. Conditions: human, in vivo; cited from earlier work.
In data set [5] the test system is P-gp. The following applies: rats; cited from earlier work.

This is an account of results in article PMC3586934 (Anesthesiology, 2012).

Like-named read-outs stand apart in the source and are kept apart here.

For the compound `CCC(=O)C(C[C@H](C)N(C)C)(c1ccccc1)c1ccccc1` [S-methadone], the figures for the Michaelis constant (Km) in the data set with CYP3A4 and in the data set on CYP2B6 were 149 µM and 16 µM, respectively. For the same compound, the EH in data set [1] was determined as 0.06 ± 0.02. Moreover, the Cmax (as a rule, the highest concentration seen after dosing) in “Intravenous” (iv, 6 mg) amounted to 83 ± 39 ng/mL; in “Intravenous” (po, 11 mg), 30 ± 10 ng/mL. In addition, the AUC(0-t) – broadly, exposure summed from dosing to a finite time, without extrapolation to infinity – stood at 688 ± 169 ng·h/mL in the data set “Intravenous” (po, 11 mg, control) and 685 ± 131 ng·h/mL in “Intravenous” (po, after indinavir). Besides, the AUC(0-inf) – broadly, the area under the concentration-time curve extrapolated to infinity – in “Intravenous” (po, 11 mg, control) was 780 ± 200 ng·h/mL; in the data set “Intravenous” (po, after indinavir), 805 ± 194 ng·h/mL. In addition, the Foral is 0.90 ± 0.11 in “Intravenous” (after indinavir) and 0.87 ± 0.10 in “Intravenous” (control).
Turning to `O=C1Nc2ccc(Cl)cc2[C@@](C#CC2CC2)(C(F)(F)F)O1` [efavirenz], in [2], the “methadone clearance, change” value is reported as “doubled”.
With `CCC(=O)C(CC(C)N(C)C)(c1ccccc1)c1ccccc1` (stereo not shown) [methadone], in the data set with healthy volunteers (after indinavir), the “AUEC0-∞” value is listed as 96± 56 mm•hr and the Maximum miosis stood at 3.6 ± 1.0 mm. For the same compound, in the data set with healthy volunteers (control), the “AUEC0-∞” value was determined as 87 ± 66 mm•hr and the Maximum miosis was 3.6 ± 1.0 mm. In data set [3], the FG predicted is reported as 0.97 and the “FG, average in several investigations” value is 0.96. Besides, in data set [3] (intravenous methadone), the “EH, average” value was 0.09 and the fhep is reported as 0.76.
Take `Cc1c(O)cccc1C(=O)N[C@@H](CSc1ccccc1)[C@H](O)CN1C[C@H]2CCCC[C@H]2C[C@H]1C(=O)NC(C)(C)C` [nelfinavir]: the “fexofenadine Cmax, change” value in the data set on P-gp [4] is “decreased”. In the data set with CYP3A, the “inhibition of first-pass CYP3A” value is given as over 75% and the “inhibition of hepatic CYP3A” value is reported as 50%.
Turning to `CO[C@H]1/C=C/O[C@@]2(C)Oc3c(C)c(O)c4c(O)c(c(/C=N/N5CCN(C)CC5)c(O)c4c3C2=O)NC(=O)/C(C)=C\C=C\[C@H](C)[C@H](O)[C@@H](C)[C@@H](O)[C@@H](C)[C@H](OC(C)=O)[C@@H]1C` [rifampin], in [2], the “methadone clearance, change” value was “doubled”.
Regarding `CC(C)c1nc(CN(C)C(=O)N[C@H](C(=O)N[C@@H](Cc2ccccc2)C[C@H](O)[C@H](Cc2ccccc2)NC(=O)OCc2cncs2)C(C)C)cs1` [ritonavir], the “methadone clearance, change” value in data set [2] is listed as “doubled”.
For `C/C=C/C[C@@H](C)C(=O)[C@H]1C(=O)N[C@@H](C(C)C)C(=O)N(C)CC(=O)N(C)[C@@H](CC(C)C)C(=O)N[C@@H](C(C)C)C(=O)N(C)[C@@H](CC(C)C)C(=O)N[C@@H](C)C(=O)N[C@H](C)C(=O)N(C)[C@@H](CC(C)C)C(=O)N(C)[C@@H](CC(C)C)C(=O)N(C)[C@@H](C(C)C)C(=O)N1C` [valspodar], the “oral methadone bioavailability, change” value with P-gp [5] was “increased”.
`C[C@@H](c1ncncc1F)[C@](O)(Cn1cncn1)c1ccc(F)cc1F` [voriconazole]: in data set [2], the “R-methadone AUC, increase” value was 47% and the “S-methadone AUC, increase” value is reported as 103%.
